Structures can show the parent of a compound that is named as a salt.

One data set deals with PANC-1 cells. Put plainly: Cytotoxicity assay (CCK-8). It is filed as cell-based. The conditions noted are these: Homo sapiens; PANC-1, 72 hours.
For data set [1] the following is noted: in vivo; cited from earlier work.

Experimental for PANC-1 cells: Human pancreatic cancer cell lines were seeded in a 96-well plate at a density of 5x10^3 cells/well and allowed to adhere overnight. The culture medium was then replaced with medium containing free GEM, IgG or ICAM1 conjugated DM1, Duo, MMAE, MMAF at different drug concentrations. After cells were cultured for another 72 hours, the cytotoxicity was determined by CCK-8 assay following the vendor-provided protocol. Cells were carefully rinsed with PBS after the drug-containing medium was removed, and this was followed by adding the CCK-8 containing medium solution. The cells were then incubated with the CCK-8 medium for 4 hours. The plate was read at the absorbance wavelength of 450 nm using a microplate reader (Synergy2; BioTek, Winooski, Vt., USA). Cell viability was determined by comparing the absorbance of cells incubated with drugs to that of the control cells incubated without the presence of the drug.

Turning to `Nc1ccn([C@@H]2O[C@H](CO)[C@@H](O)C2(F)F)c(=O)n1` [GEM, Gemcitabine hydrochloride], the midpoint of inhibition in the data set on PANC-1 cells, the IC50, lay at 89.1 µM. Also, the circulation half-life in data set [1] is 16.8 min.

(Values after patent publication US20220280653A1, “INTERCELLULAR ADHESION MOLECULE 1 (ICAM1) ANTIBODY DRUG CONJUGATE AND USES THEREOF” (Children's Medical Center Corporation, priority 2019, published 2022).)
